Laboratory results: patent US10556888B2, “Pyrazole compounds or salts thereof, preparation methods therefor, herbicidal compositions and use thereof” (QINGDAO KINGAGROOT CHEMICAL COMPOUNDS CO., LTD, priority 2015, dated 2020)

How the values were obtained:
[1] = test system: Monocotyledonous and dicotyledonous weed; test: Post-emergence test experiment, weed control effect (Table 2); format: in vivo; set-up: key to weed control effect, Setaria viridis (level) / weed control effect, Rorippa indica (level) / weed control effect, Abutilon theophrasti (level) / weed control effect, Echinochloa crus-galli (level) / weed control effect, Digitaria sanguinalis (level): Level 10: completely dead; Level 9: above 90% growth inhibition rate; Level 8: above 80% growth inhibition rate; Level 7: above 70% growth inhibition rate; Level 6: above 60% growth inhibition rate; Level 5: above 50% growth inhibition rate; Level 4: above 30% growth inhibition rate; Level 3: above 20% growth inhibition rate; Level 2: above 10% growth inhibition rate; Level 1: above 1-10% growth inhibition rate; Level 0: no effect; settings: 3 weeks after spraying, greenhouse
Outline: (§1)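 Compounds, dissolved in acetone, mixed with Tween 80 and diluted in water, were sprayed post-emergence onto greenhouse-grown weeds and crops at the 2-3 leaf stage (2-3 weeks post-sowing). Plants then grown 3 more weeks in the greenhouse before evaluation.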

[2] = test system: main crop (wheat, corn, rice, soybean, cotton, oilseed, millet and sorghum); test: Post-emergence test experiment, main crops (Table 2); format: in vivo; set-up: key: Level 10: completely dead; Level 9: above 90% growth inhibition rate; Level 8: above 80% growth inhibition rate; Level 7: above 70% growth inhibition rate; Level 6: above 60% growth inhibition rate; Level 5: above 50% growth inhibition rate; Level 4: above 30% growth inhibition rate; Level 3: above 20% growth inhibition rate; Level 2: above 10% growth inhibition rate; Level 1: above 1-10% growth inhibition rate; Level 0: no effect; settings: 3 weeks after spraying, greenhouse
Outline: as §1

SMILES | weed control effect, Abutilon theophrasti (level) ([1]; 120 g/ha) | weed control effect, Bidens pilosa (level) ([1]; 120 g/ha) | weed control effect, Digitaria sanguinalis (level) ([1]; 120 g/ha) | weed control effect, Echinochloa crus-galli (level) ([1]; 120 g/ha) | weed control effect, Rorippa indica (level) ([1]; 120 g/ha) | weed control effect, Setaria viridis (level) ([1]; 120 g/ha) | effect on crop, corn (level) ([2]; 120 g/ha) | effect on crop, rice (level) ([2]; 120 g/ha) | effect on crop, wheat (level) ([2]; 120 g/ha) | weed control effect, Abutilon theophrasti (level) ([1]; 30 g/ha) | weed control effect, Bidens pilosa (level) ([1]; 30 g/ha) | weed control effect, Digitaria sanguinalis (level) ([1]; 30 g/ha) | weed control effect, Echinochloa crus-galli (level) ([1]; 30 g/ha) | weed control effect, Rorippa indica (level) ([1]; 30 g/ha) | weed control effect, Setaria viridis (level) ([1]; 30 g/ha) | effect on crop, corn (level) ([2]; 30 g/ha) | effect on crop, rice (level) ([2]; 30 g/ha) | effect on crop, wheat (level) ([2]; 30 g/ha) | further results
CCn1nc(C2CC2)c(C(=O)c2ccc(S(C)(=O)=O)c(Cn3cc(C)cn3)c2Cl)c1OC(=O)c1cnn(C)c1 [Compound 91] | 6 (Level 6: above 60% growth inhibition rate) | 6 (Level 6: above 60% growth inhibition rate) | 1 (Level 1: above 1-10% growth inhibition rate) | 10 | 4 (Level 4: above 30% growth inhibition rate) | 3 (Level 3: above 20% growth inhibition rate) | 0 | 0 | 0 |  |  |  |  |  |  |  |  |  | 
Cc1cc(C)n(Cc2c(S(C)(=O)=O)ccc(C(=O)c3c(C4CC4)nn(C)c3OC(=O)c3cnn(C)c3)c2Cl)n1 [Compound 20] | 6 (Level 6: above 60% growth inhibition rate) | 6 (Level 6: above 60% growth inhibition rate) | 1 (Level 1: above 1-10% growth inhibition rate) | 10 | 4 (Level 4: above 30% growth inhibition rate) | 5 (Level 5: above 50% growth inhibition rate) | 0 | 0 | 0 |  |  |  |  |  |  |  |  |  | 
Cc1nn(C)cc1C(=O)Oc1c(C(=O)c2ccc(S(C)(=O)=O)c(COCC3CCCO3)c2Cl)c(C)nn1C(C)C (stereo not drawn) [Compound 101] |  |  |  |  |  |  |  |  |  |  |  |  |  |  |  |  |  |  | weed control effect, Abutilon theophrasti (level) ([1]; 250 g/ha): 7 (Level 7: above 70% growth inhibition rate); weed control effect, Bidens pilosa (level) ([1]; 250 g/ha): 7 (Level 7: above 70% growth inhibition rate); weed control effect, Digitaria sanguinalis (level) ([1]; 250 g/ha): 6 (Level 6: above 60% growth inhibition rate); weed control effect, Echinochloa crus-galli (level) ([1]; 250 g/ha): 9 (Level 9: above 90% growth inhibition rate); weed control effect, Rorippa indica (level) ([1]; 250 g/ha): 10; weed control effect, Setaria viridis (level) ([1]; 250 g/ha): 7 (Level 7: above 70% growth inhibition rate); effect on crop, corn (level) ([2]; 250 g/ha): 1 (Level 1: above 1-10% growth inhibition rate); effect on crop, rice (level) ([2]; 250 g/ha): 8 (Level 8: above 80% growth inhibition rate); effect on crop, wheat (level) ([2]; 250 g/ha): 0
Cc1cc(C)n(Cc2c(S(C)(=O)=O)ccc(C(=O)c3c(C)nn(C)c3OC(=O)c3cn(C)nc3C)c2Cl)n1 [Compound 03] | 4 (Level 4: above 30% growth inhibition rate) | 6 (Level 6: above 60% growth inhibition rate) | 0 | 10 | 0 | 6 (Level 6: above 60% growth inhibition rate) | 0 | 0 | 0 |  |  |  |  |  |  |  |  |  | 
Cc1nn(C)cc1C(=O)Oc1c(C(=O)c2ccc(S(C)(=O)=O)c(COCC(F)F)c2Cl)c(C)nn1C [Compound 25] |  |  |  |  |  |  |  |  |  | 7 (Level 7: above 70% growth inhibition rate) | 7 (Level 7: above 70% growth inhibition rate) | 10 | 10 | 5 (Level 5: above 50% growth inhibition rate) | 9 (Level 9: above 90% growth inhibition rate) | 0 | 6 (Level 6: above 60% growth inhibition rate) | 0 | 
CCOc1c(C(=O)Oc2c(C(=O)c3ccc(S(C)(=O)=O)c(COC)c3Cl)c(C)nn2CC)cnn1C [Compound 92] |  |  |  |  |  |  |  |  |  | 5 (Level 5: above 50% growth inhibition rate) | 7 (Level 7: above 70% growth inhibition rate) | 8 (Level 8: above 80% growth inhibition rate) | 10 | 10 | 10 | 1 (Level 1: above 1-10% growth inhibition rate) | 3 (Level 3: above 20% growth inhibition rate) | 0 | 
Cc1cnn(Cc2c(S(C)(=O)=O)ccc(C(=O)c3c(C)nn(C)c3OC(=O)c3cnn(C)c3)c2Cl)c1 [Compound 14] | 6 (Level 6: above 60% growth inhibition rate) | 6 (Level 6: above 60% growth inhibition rate) | 0 | 10 | 4 (Level 4: above 30% growth inhibition rate) | 1 (Level 1: above 1-10% growth inhibition rate) | 0 | 0 | 0 |  |  |  |  |  |  |  |  |  | 
Cc1cnn(Cc2c(S(C)(=O)=O)ccc(C(=O)c3cnn(C(C)C)c3OC(=O)c3cn(C)nc3C)c2Cl)c1 [Compound 97] | 6 (Level 6: above 60% growth inhibition rate) | 6 (Level 6: above 60% growth inhibition rate) | 1 (Level 1: above 1-10% growth inhibition rate) | 10 | 4 (Level 4: above 30% growth inhibition rate) | 3 (Level 3: above 20% growth inhibition rate) | 0 | 0 | 0 |  |  |  |  |  |  |  |  |  | 
Cc1nn(C)cc1C(=O)Oc1c(C(=O)c2ccc(S(C)(=O)=O)c(COCC(F)(F)F)c2Cl)c(C2CC2)nn1C [Compound 49] |  |  |  |  |  |  |  |  |  | 7 (Level 7: above 70% growth inhibition rate) | 7 (Level 7: above 70% growth inhibition rate) | 7 (Level 7: above 70% growth inhibition rate) | 10 | 10 | 9 (Level 9: above 90% growth inhibition rate) | 0 | 3 (Level 3: above 20% growth inhibition rate) | 0 | 
C#CCOCc1c(S(C)(=O)=O)ccc(C(=O)c2c(C)nn(C)c2OC(=O)c2cn(C)nc2C)c1Cl [Compound 33] |  |  |  |  |  |  |  |  |  | 7 (Level 7: above 70% growth inhibition rate) | 7 (Level 7: above 70% growth inhibition rate) | 9 (Level 9: above 90% growth inhibition rate) | 9 (Level 9: above 90% growth inhibition rate) | 5 (Level 5: above 50% growth inhibition rate) | 9 (Level 9: above 90% growth inhibition rate) | 1 (Level 1: above 1-10% growth inhibition rate) | 5 (Level 5: above 50% growth inhibition rate) | 0 | 
Cc1cnn(Cc2c(S(C)(=O)=O)ccc(C(=O)c3cnn(C)c3OC(=O)c3cn(C)nc3C)c2Cl)c1 [Compound 07] | 6 (Level 6: above 60% growth inhibition rate) | 6 (Level 6: above 60% growth inhibition rate) | 1 (Level 1: above 1-10% growth inhibition rate) | 10 | 4 (Level 4: above 30% growth inhibition rate) | 5 (Level 5: above 50% growth inhibition rate) | 0 | 0 | 0 |  |  |  |  |  |  |  |  |  | 
CCOCCOCc1c(S(C)(=O)=O)ccc(C(=O)c2c(C)nn(C)c2OC(=O)c2cn(C)nc2C)c1Cl [Compound 39] |  |  |  |  |  |  |  |  |  |  |  |  |  |  |  |  |  |  | weed control effect, Abutilon theophrasti (level) ([1]; 60 g/ha): 10; weed control effect, Bidens pilosa (level) ([1]; 60 g/ha): 8 (Level 8: above 80% growth inhibition rate); weed control effect, Digitaria sanguinalis (level) ([1]; 60 g/ha): 9 (Level 9: above 90% growth inhibition rate); weed control effect, Echinochloa crus-galli (level) ([1]; 60 g/ha): 10; weed control effect, Rorippa indica (level) ([1]; 60 g/ha): 10; weed control effect, Setaria viridis (level) ([1]; 60 g/ha): 10; effect on crop, corn (level) ([2]; 60 g/ha): 0; effect on crop, rice (level) ([2]; 60 g/ha): 1 (Level 1: above 1-10% growth inhibition rate); effect on crop, wheat (level) ([2]; 60 g/ha): 0
Cc1cnn(Cc2c(S(C)(=O)=O)ccc(C(=O)c3c(C)nn(C)c3OC(=O)c3cn(C)nc3C)c2Cl)c1 [Compound 04] | 6 (Level 6: above 60% growth inhibition rate) | 6 (Level 6: above 60% growth inhibition rate) | 1 (Level 1: above 1-10% growth inhibition rate) | 10 | 4 (Level 4: above 30% growth inhibition rate) | 5 (Level 5: above 50% growth inhibition rate) | 0 | 0 | 0 |  |  |  |  |  |  |  |  |  | 
